ChEMBL document CHEMBL1221367, “A new series of macrolide derivatives with 4''-O-saccharide substituents” (2010)
In brackets after ≈: the same amount, converted by molar mass.

Columns and labels:
Assay type in all cases: functional
Staphylococcus aureus [1] = assay: Antibacterial activity against methicillin-resistant Staphylococcus aureus BK2464 by the broth microdilution method
[2] = system: Staphylococcus epidermidis; assay: Antibacterial activity against methicillin-resistant Staphylococcus epidermidis MRSE-1 by the broth microdilution method
Staphylococcus aureus [3] = assay: Antibacterial activity against methicillin-susceptible Staphylococcus aureus ATCC 29213 by the broth microdilution method
Streptococcus pneumoniae [4] = assay: Antibacterial activity against erythromycin-resistant Streptococcus pneumoniae ERSP-2 expressing ermB and mef by the broth microdilution method
Streptococcus pyogenes [5] = assay: Antibacterial activity against Streptococcus pyogenes ERSPy-1 expressing mef by the broth microdilution method
Streptococcus pyogenes [6] = assay: Antibacterial activity against erythromycin-resistant Streptococcus pyogenes 8902 expressing ermB by the broth microdilution method
Streptococcus pneumoniae [7] = assay: Ratio of compound MIC to clarithromycin MIC for erythromycin-resistant Streptococcus pneumoniae ERSP-2 expressing ermB and mef
Streptococcus pyogenes [8] = assay: Ratio of compound MIC to clarithromycin MIC for erythromycin-resistant Streptococcus pyogenes 8902 expressing ermB
Streptococcus pyogenes [9] = assay: Ratio of compound MIC to clarithromycin MIC for Streptococcus pyogenes ERSPy-1 expressing mef

Row | Compound | MIC (Staphylococcus aureus [1]) | MIC [2] | MIC (Staphylococcus aureus [3]) | MIC (Streptococcus pneumoniae [4]) | MIC (Streptococcus pyogenes [5]) | MIC (Streptococcus pyogenes [6]) | Ratio (Streptococcus pneumoniae [7]) | Ratio (Streptococcus pyogenes [8]) | Ratio (Streptococcus pyogenes [9])
1 | CC[C@H]1OC(=O)[C@H](C)[C@@H](O[C@H]2C[C@@](C)(OC)[C@@H](O[C@@H]3O[C@H](CO)[C@@H](O)[C@H](O)[C@H]3O)[C@H](C)O2)[C@H](C)[C@@H](O[C@@H]2O[C@H](C)C[C@H](N(C)C)[C@H]2O)[C@](C)(OC)C[C@@H](C)C(=O)[C@H](C)[C@@H](O)[C@]1(C)O | > 16 µg/mL | 16 µg/mL (≈ 17.6 µM) | > 16 µg/mL | 16 µg/mL (≈ 17.6 µM) | 16 µg/mL (≈ 17.6 µM) | 16 µg/mL (≈ 17.6 µM) |  |  | 
2 | CC[C@H]1OC(=O)[C@H](C)[C@@H](O[C@H]2C[C@@](C)(OC)[C@@H](O[C@@H]3O[C@H](CO)[C@@H](O)[C@H](O)[C@H]3O)[C@H](C)O2)[C@H](C)[C@@H](O[C@@H]2O[C@H](C)C[C@H](N(C)C)[C@H]2O)[C@](C)(OC)C[C@@H](C)C(=O)[C@H](C)[C@H]2N(CCCCn3cnc4ncccc43)C(=O)O[C@]12C | > 16 µg/mL | > 16 µg/mL | > 16 µg/mL | 8 µg/mL (≈ 7.22 µM) | 8 µg/mL (≈ 7.22 µM) | 16 µg/mL (≈ 14.4 µM) |  |  | 
3 | CC[C@H]1OC(=O)[C@H](C)[C@@H](O[C@H]2C[C@@](C)(OC)[C@@H](O[C@@H]3O[C@H](CO)[C@@H](O)[C@H](O)[C@H]3OC(C)=O)[C@H](C)O2)[C@H](C)[C@@H](O[C@@H]2O[C@H](C)C[C@H](N(C)C)[C@H]2O)[C@](C)(OC)C[C@@H](C)C(=O)[C@H](C)[C@@H](O)[C@]1(C)O | > 16 µg/mL | > 16 µg/mL | > 16 µg/mL | 16 µg/mL (≈ 16.8 µM) | 16 µg/mL (≈ 16.8 µM) | > 16 µg/mL |  |  | 
4 | CC[C@H]1OC(=O)[C@H](C)[C@@H](O[C@H]2C[C@@](C)(OC)[C@@H](O[C@@H]3O[C@@H]4COC(c5ccccc5)O[C@H]4[C@H](O)[C@H]3O)[C@H](C)O2)[C@H](C)[C@@H](O[C@@H]2O[C@H](C)C[C@H](N(C)C)[C@H]2O)[C@](C)(OC)C[C@@H](C)C(=O)[C@H](C)[C@H]2N(CCCCn3cnc4cccnc43)C(=O)O[C@]12C (stereo not given in full) | > 16 µg/mL | 4 µg/mL (≈ 3.34 µM) | 4 µg/mL (≈ 3.34 µM) | 2 µg/mL (≈ 1.67 µM) | 0.5 µg/mL (≈ 0.418 µM) | 4 µg/mL (≈ 3.34 µM) | 8 | 8 | 4
5 | CC[C@H]1OC(=O)[C@H](C)[C@@H](O[C@H]2C[C@@](C)(OC)[C@@H](O)[C@H](C)O2)[C@H](C)[C@@H](O[C@@H]2O[C@H](C)C[C@H](N(C)C)[C@H]2O)[C@](C)(OC)C[C@@H](C)C(=O)[C@H](C)[C@@H](O)[C@]1(C)O [CLARITHROMYCIN] | > 32 µg/mL | 16 µg/mL (≈ 21.4 µM) | 0.25 µg/mL (≈ 0.334 µM) | 16 µg/mL (≈ 21.4 µM) | 2 µg/mL (≈ 2.67 µM) | 32 µg/mL (≈ 42.8 µM) |  |  | 
6 | CC[C@H]1OC(=O)[C@H](C)[C@@H](O[C@H]2C[C@@](C)(OC)[C@@H](O[C@@H]3O[C@H](COC(=O)c4ccccc4)[C@@H](OC(=O)c4ccccc4)[C@H](OC(C)=O)[C@H]3OC(C)=O)[C@H](C)O2)[C@H](C)[C@@H](O[C@@H]2O[C@H](C)C[C@H](N(C)C)[C@H]2O)[C@](C)(OC)C[C@@H](C)C(=O)[C@H](C)[C@@H](O)[C@]1(C)O | > 16 µg/mL | 16 µg/mL (≈ 13.3 µM) | > 16 µg/mL | 16 µg/mL (≈ 13.3 µM) | 8 µg/mL (≈ 6.65 µM) | 16 µg/mL (≈ 13.3 µM) |  |  | 
7 | CC[C@H]1OC(=O)[C@H](C)[C@@H](O[C@H]2C[C@@](C)(OC)[C@@H](O[C@@H]3O[C@H](CO)[C@@H](O[C@H]4O[C@@H](CO)[C@H](O)[C@@H](O)[C@@H]4O)[C@H](O)[C@H]3O)[C@H](C)O2)[C@H](C)[C@@H](O[C@@H]2O[C@H](C)C[C@H](N(C)C)[C@H]2O)[C@](C)(OC)C[C@@H](C)C(=O)[C@H](C)[C@@H](O)[C@]1(C)O | > 16 µg/mL | > 16 µg/mL | > 16 µg/mL | 16 µg/mL (≈ 14.9 µM) | > 16 µg/mL | > 16 µg/mL |  |  | 
8 | CC[C@H]1OC(=O)[C@H](C)[C@@H](O[C@H]2C[C@@](C)(OC)[C@@H](O[C@H]3O[C@H](COC(C)=O)[C@@H](OC(=O)c4ccccc4)[C@H](OC(C)=O)[C@H]3OC(C)=O)[C@H](C)O2)[C@H](C)[C@@H](O[C@@H]2O[C@H](C)C[C@H](N(C)C)[C@H]2O)[C@](C)(OC)C[C@@H](C)C(=O)[C@H](C)[C@@H](O)[C@]1(C)O | > 16 µg/mL | 16 µg/mL (≈ 14 µM) | 16 µg/mL (≈ 14 µM) | 16 µg/mL (≈ 14 µM) | 1 µg/mL (≈ 0.877 µM) | 16 µg/mL (≈ 14 µM) |  |  | 
9 | CC[C@H]1OC(=O)[C@H](C)[C@@H](O[C@H]2C[C@@](C)(OC)[C@@H](O[C@@H]3O[C@H](COC(=O)c4ccccc4)[C@@H](O)[C@H](O)[C@H]3OC(C)=O)[C@H](C)O2)[C@H](C)[C@@H](O[C@@H]2O[C@H](C)C[C@H](N(C)C)[C@H]2O)[C@](C)(OC)C[C@@H](C)C(=O)[C@H](C)[C@@H](O)[C@]1(C)O | > 16 µg/mL | 16 µg/mL (≈ 15.1 µM) | 16 µg/mL (≈ 15.1 µM) | 8 µg/mL (≈ 7.57 µM) | 8 µg/mL (≈ 7.57 µM) | 16 µg/mL (≈ 15.1 µM) |  |  | 
10 | CC[C@H]1OC(=O)[C@H](C)[C@@H](O[C@H]2C[C@@](C)(OC)[C@@H](O[C@@H]3O[C@H](CO)[C@@H](O)[C@H](O)[C@H]3O)[C@H](C)O2)[C@H](C)[C@@H](O[C@@H]2O[C@H](C)C[C@H](N(C)C)[C@H]2O)[C@](C)(OC)C[C@@H](C)C(=O)[C@H](C)[C@H]2N(CCCCn3cnc4cccnc43)C(=O)O[C@]12C | > 16 µg/mL | > 16 µg/mL | > 16 µg/mL | 8 µg/mL (≈ 7.22 µM) | 16 µg/mL (≈ 14.4 µM) | 16 µg/mL (≈ 14.4 µM) |  |  | 
11 | CC[C@H]1OC(=O)[C@H](C)[C@@H](O[C@H]2C[C@@](C)(OC)[C@@H](O[C@@H]3O[C@@H]4COC(c5ccccc5)O[C@H]4[C@H](O)[C@H]3O)[C@H](C)O2)[C@H](C)[C@@H](O[C@@H]2O[C@H](C)C[C@H](N(C)C)[C@H]2O)[C@](C)(OC)C[C@@H](C)C(=O)[C@H](C)[C@H]2N(CCCCn3cnc4ncccc43)C(=O)O[C@]12C (stereo not given in full) | > 16 µg/mL | 4 µg/mL (≈ 3.34 µM) | 4 µg/mL (≈ 3.34 µM) | 1 µg/mL (≈ 0.836 µM) | 2 µg/mL (≈ 1.67 µM) | 8 µg/mL (≈ 6.69 µM) |  |  | 
12 | CC[C@H]1OC(=O)[C@H](C)C(=O)[C@H](C)[C@@H](O[C@@H]2O[C@H](C)C[C@H](N(C)C)[C@H]2O)[C@](C)(OC)C[C@@H](C)C(=O)[C@H](C)[C@H]2N(CCCCn3cnc(-c4cccnc4)c3)C(=O)O[C@]12C [TELITHROMYCIN] | > 32 µg/mL | 0.125 µg/mL (≈ 0.154 µM) | 0.125 µg/mL (≈ 0.154 µM) | 0.125 µg/mL (≈ 0.154 µM) | 0.25 µg/mL (≈ 0.308 µM) | 0.25 µg/mL (≈ 0.308 µM) |  |  | 
